One substance from US7504384B2 (priority 2000, dated 2009) can be followed below.

This experiment concerns TNF-α and IL-6 in serum. Put plainly: Serum cytokine levels in septic rats (ELISA). It counts as in vivo, rat. On the procedure:
Blood samples were collected 1, 6, 12, and 24 hours after LPS injection to assess cytokine concentrations (FIG. 4.3A). […] Thereafter, the animals received LPS (7.5 mg/kg) i.p. alone or together with Compound XXII (150 mg/kg) or Compound XXV (50 mg/kg). Blood samples were collected after LPS injection. A group of rats that was not treated with Lipid-conjugates or LPS served as negative controls (FIG. 4.3B). All cytokines were measured in separated serum by ELISA Immunoassays (R&D Systems GmbH, Wiesbaden, Germany) according to the instructions of the manufacturer.
In Experiment 4.5, sepsis was induced by LPS ([…] endotoxin, 5 mg/kg) and lipoteichoic acid (LTA, […] endotoxin, 5 mg/kg; Staph. aureus LTA, Sigma, Germany).
(In general: In an ELISA, binding on a coated surface is turned into a signal by an enzyme label.)

In the case of “dipalmitoyl-PE conjugated to HA [Compound XXII]”, the “cytokine production induced by LPS or LPS + LTA” value (150 mg/kg, 5 mg/kg i.p. LPS, or LPS + 5 mg/kg i.p. LTA, 1 and 6 hours) is reported as “effective in suppressing cytokine production”. Moreover, the endotoxin-induced cytokine production entry (i.v. at the same time as LPS i.p., versus i.p. pretreatment) is given as “suppressed equally well”.
